From publication PMC6631349 (Xenobiotica; the fate of foreign compounds in biological …, 2014)

Assays:
Conditions in all cases: 50 μM LPC components; recombinant human UGT; mean of triplicate
UGT1A1 = target: T1, UGT1A1 (Homo sapiens, UniProt P22309); assay: UGT1A1 supersomes-catalyzed 4-MU glucuronidation inhibition
T1 sequence (P22309 26-533): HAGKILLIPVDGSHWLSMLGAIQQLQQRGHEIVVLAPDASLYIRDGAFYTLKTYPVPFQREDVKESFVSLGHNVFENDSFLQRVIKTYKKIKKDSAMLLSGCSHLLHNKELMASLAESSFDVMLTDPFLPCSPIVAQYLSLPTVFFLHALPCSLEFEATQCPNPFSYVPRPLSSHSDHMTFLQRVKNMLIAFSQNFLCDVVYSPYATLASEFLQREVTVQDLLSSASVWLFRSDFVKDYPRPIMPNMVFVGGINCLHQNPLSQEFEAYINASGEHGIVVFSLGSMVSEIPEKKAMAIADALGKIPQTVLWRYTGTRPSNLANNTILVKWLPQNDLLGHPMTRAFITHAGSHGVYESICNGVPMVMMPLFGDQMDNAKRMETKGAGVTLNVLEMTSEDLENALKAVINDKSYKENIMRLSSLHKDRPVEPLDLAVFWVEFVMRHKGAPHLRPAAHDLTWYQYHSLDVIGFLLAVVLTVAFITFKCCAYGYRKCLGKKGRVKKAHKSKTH

UGT1A3 = target: T2, UGT1A3 (Homo sapiens, UniProt P35503); assay: UGT1A3 supersomes-catalyzed 4-MU glucuronidation inhibition
T2 sequence (P35503 29-534): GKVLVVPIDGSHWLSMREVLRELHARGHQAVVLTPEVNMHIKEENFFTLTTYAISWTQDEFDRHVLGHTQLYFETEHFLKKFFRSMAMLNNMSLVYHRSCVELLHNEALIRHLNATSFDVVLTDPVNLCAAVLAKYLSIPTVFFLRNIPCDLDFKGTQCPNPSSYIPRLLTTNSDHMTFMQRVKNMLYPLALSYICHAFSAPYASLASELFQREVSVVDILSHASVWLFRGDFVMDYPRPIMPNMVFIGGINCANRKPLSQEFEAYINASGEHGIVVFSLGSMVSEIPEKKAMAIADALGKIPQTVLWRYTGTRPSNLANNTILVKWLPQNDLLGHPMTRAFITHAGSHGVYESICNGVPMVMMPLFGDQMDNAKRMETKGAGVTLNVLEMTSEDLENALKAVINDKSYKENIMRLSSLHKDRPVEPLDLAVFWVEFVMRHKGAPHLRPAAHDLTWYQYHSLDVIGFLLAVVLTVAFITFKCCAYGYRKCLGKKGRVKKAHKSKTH

UGT2B4 = target: T3, UGT2B4 (Homo sapiens, UniProt P06133); assay: UGT2B4 supersomes-catalyzed 4-MU glucuronidation inhibition
T3 sequence (P06133 24-528): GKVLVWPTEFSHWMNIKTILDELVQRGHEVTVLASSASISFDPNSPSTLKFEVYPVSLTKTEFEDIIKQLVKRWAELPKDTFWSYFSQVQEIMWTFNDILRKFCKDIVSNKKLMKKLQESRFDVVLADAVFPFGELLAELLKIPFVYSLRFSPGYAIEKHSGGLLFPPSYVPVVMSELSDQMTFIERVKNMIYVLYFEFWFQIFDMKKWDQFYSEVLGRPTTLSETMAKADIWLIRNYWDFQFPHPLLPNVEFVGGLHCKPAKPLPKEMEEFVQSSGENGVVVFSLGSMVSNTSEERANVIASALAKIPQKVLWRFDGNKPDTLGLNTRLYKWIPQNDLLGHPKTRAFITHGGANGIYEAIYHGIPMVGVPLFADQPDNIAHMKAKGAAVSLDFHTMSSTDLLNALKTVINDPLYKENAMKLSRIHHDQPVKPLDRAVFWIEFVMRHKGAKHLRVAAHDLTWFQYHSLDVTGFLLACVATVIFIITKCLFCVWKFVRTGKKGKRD

UGT2B7 = target: T4, UGT2B7 (Homo sapiens, UniProt P16662); assay: UGT2B7 supersomes-catalyzed 4-MU glucuronidation inhibition
T4 sequence (P16662 24-529): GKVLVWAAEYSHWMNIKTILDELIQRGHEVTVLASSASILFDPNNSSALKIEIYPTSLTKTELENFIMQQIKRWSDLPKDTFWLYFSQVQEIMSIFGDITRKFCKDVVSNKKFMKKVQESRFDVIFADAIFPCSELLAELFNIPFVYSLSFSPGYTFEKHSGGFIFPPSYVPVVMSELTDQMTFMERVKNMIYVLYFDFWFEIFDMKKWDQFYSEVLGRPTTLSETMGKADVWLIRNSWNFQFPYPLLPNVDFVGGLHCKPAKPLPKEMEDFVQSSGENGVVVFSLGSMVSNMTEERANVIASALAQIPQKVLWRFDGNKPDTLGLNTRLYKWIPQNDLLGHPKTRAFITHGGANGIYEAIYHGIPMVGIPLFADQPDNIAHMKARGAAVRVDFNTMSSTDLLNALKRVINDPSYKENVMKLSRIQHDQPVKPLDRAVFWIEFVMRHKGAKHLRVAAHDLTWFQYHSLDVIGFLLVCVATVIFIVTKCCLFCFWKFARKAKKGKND

UGT1A8 = target: T5, UGT1A8 (Homo sapiens, UniProt Q9HAW9)
T5 sequence (Q9HAW9 26-530): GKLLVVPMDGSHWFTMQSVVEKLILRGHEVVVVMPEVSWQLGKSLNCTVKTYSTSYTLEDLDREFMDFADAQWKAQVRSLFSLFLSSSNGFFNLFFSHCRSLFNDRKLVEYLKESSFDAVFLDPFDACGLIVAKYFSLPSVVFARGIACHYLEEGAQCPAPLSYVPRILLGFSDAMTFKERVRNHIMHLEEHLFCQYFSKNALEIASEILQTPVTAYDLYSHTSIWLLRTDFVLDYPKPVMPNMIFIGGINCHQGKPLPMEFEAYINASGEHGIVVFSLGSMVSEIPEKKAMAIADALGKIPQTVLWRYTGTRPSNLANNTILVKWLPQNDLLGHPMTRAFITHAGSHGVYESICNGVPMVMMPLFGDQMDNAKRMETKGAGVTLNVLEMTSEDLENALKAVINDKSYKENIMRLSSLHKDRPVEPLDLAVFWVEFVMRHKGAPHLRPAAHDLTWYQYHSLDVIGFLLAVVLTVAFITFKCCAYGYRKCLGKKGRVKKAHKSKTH

CCCCCCCCCC(=O)OC[C@@H](O)COP(=O)([O-])OCC[N+](C)(C)C [LPC 10:0]
residual activity 1A1 (UGT1A1): 170.2% | residual activity 1A3 (UGT1A3): 75.9% | residual activity 2B4 (UGT2B4): 208.4% | residual activity 2B7 (UGT2B7): 77.3% | residual activity 1A8 (UGT1A8): 100.7%
